A word on the IC50: it is the point on the concentration scale where inhibition reaches its midpoint. Usually EC50 stands for the concentration needed to bring the measured effect to its halfway point.

Data set [1] deals with hSERT (Homo sapiens (Human), UniProt P31645). Put plainly: hSERT fluorometric transporter inhibition assay (APP+ uptake, hSERT-HEK). Format: cell-based. As for the experimental part: (§1) Inhibition assays of transporters (hSERT and rVMAT2) were performed according to the following protocol.
(§2) Cell culture preparation and maintenance. Stably transfected hSERT-HEK and rVMAT2-HEK cellular cultures were maintained in Dulbecco's Minimal Essential Medium (DMEM) with GlutaMAX (Gibco) with the following additions: 10% (v/v) Fetal Bovine Serum (FBS, Atlanta Biologicals), 100 U/mL Penicillin (Gibco), and 10 μg/mL Streptomycin (Gibco). With regards to the former cell lineage, an additional ingredient, 500 μg/mL Geneticin (G418) (Gibco) was included to preserve the respective transgene.
(§3) hSERT and rVMAT2 fluorometric screening assays. For both hSERT and rVMAT2 screening experiments, respective singly transfected cells were seeded at a density of 0.09×10^6 cells/well in poly-D-Lysine (Alamanda Polymers, Inc.) coated white solid-bottom 96-well plates (Costar). Growth was permitted for approximately 44 hours in said aqueous media and at an incubation environment of 37° C. and 5% Carbon Dioxide. At the beginning of the experiment, the cellular growth solution was aspirated, and individual cells were rinsed with 150 μL of 1×Dulbecco's Phosphate Buffered Saline (PBS; HyClone). 63 μL of Experimental Media (consisting of the following contents: DMEM without phenol red but with 4.5 g/L of D-Glucose (Gibco), 1% (v/v) FBS (Atlanta Biologicals), 100 U/mL Penicillin (Gibco), and 10 μg/mL Streptomycin (Gibco)) with 2×tiered concentrations of inhibitor (or DMSO, the vehicle of these experiments) were added to the respective wells. […] A final solution of 120 μL of PBS is finally added to all corresponding wells for cell maintenance before undergoing fluorescence uptake reading by a BioTek H1MF plate reader. […]
(§4) Data analysis. […] Respective inhibitor values were first subtracted from vehicular values to quantify the respective fluorescence uptake. This metric was then analyzed using the dose-response-inhibitor nonlinear curve fitting model ([inhibitor] vs response (three parameters)) as supplied by GraphPad Prism 8 software. […]

Data set [2] has as its target rKOR (Rattus norvegicus (Rat), UniProt P34975). Put plainly: rKOR agonist assay (cAMP), rKOR-CHO. Format: cell-based. As for the experimental part:
EC50 values and % efficacy of control agonist (KOR: U-50,488) maximal response at 1 μM for rKOR-CHO were obtained by screening the selected compounds via commercially available assay services.

The subject of data set [3] is C57BL/6J mice. Put plainly: Mouse tail-flick test. It counts as in vivo. As to conditions: s.c., cumulative doses 1-30 mg/kg, 30 min post injection. The protocol: C57BL/6J (8-12 weeks, 22-31 g) were purchased from the Jackson Laboratory (Bar Harbor, ME) and housed 5 mice per cage with food and water available ad libitum. Mice were maintained on a 12-hr light/dark cycle (lights on 7:00-19:00) and all testing was done in the light cycle. Temperature was kept constant at 22±2° C., and relative humidity was maintained at 50±5%. Mice were moved to the testing room 30 minutes before the experiment to allow for acclimation. The body weight of each mouse and base tail-flick value were recorded. Mice were administered a 1 mg/kg s.c. dose of compound solution (volume of injection 220-310 μL based on body weight). After injection mice were returned to the home cage and allowed to rest for 30 minutes. Thirty minutes post injection the tail-flick measurement was taken using thermal stimulation via IR on a Ugo Basile unit set to 52 PSU (ten seconds was used as a maximum latency to prevent tissue damage). Mice were then administered 3 mg/kg s.c. dose, allowed to rest for 30 minutes, followed by another tail-flick measurement. […] Tail-flick latencies for the different doses were expressed as percentage of maximum potential effect (% MPE) by subtracting the experimental value by the base tail flick value then dividing by the difference between the maximum possible latency (10 seconds) and the base tail-flick value and finally multiplying by 100. […]
On the technique in general: Thermal pain tests record how soon the animal reacts.

In data set [4] the target is rVMAT2 (Rattus norvegicus (Rat), UniProt Q01827). In words: rVMAT2 fluorometric transporter inhibition assay (FFN206 uptake, rVMAT2-HEK). Format: cell-based. The protocol: as §1, §2, §3, §4
For data set [5], the system named is male F344 rats. Put plainly: Morphine intravenous self-administration, single administration. Format: in vivo, rat. As to conditions: 40 mg/kg IP.
Data set [6] concerns adult human primary ventricular myocytes. In words: Pro-arrhythmia assay in adult human primary ventricular cardiomyocytes (contractility). Format: cell-based. Conditions: 0.1-10 μM, 1 Hz pacing. The protocol:
Cardiac adverse effects of iboga alkaloids and related analogs was assessed via a commercially available assay, procedure reported in (Nguyen, N. et al. 2017; Page, G. et al. 2016) (FIG. 1).
Isolation of adult human primary ventricular myocytes. Adult human primary ventricular myocytes were isolated from ethically consented donor hearts. A proprietary protocol was employed to enzymatically digest hearts and isolate cardiomyocytes.
Contractility recordings procedures. Cardiomyocytes were placed in a perfusion chamber mounted on the stage of inverted Motic AE31E (IonOptix) or Olympus IX83P1ZF microscopes (MyoBlazer) and continuously perfused at approximately 2 ml/min with recording buffer heated to 35±1° C. using an in-line heater from Warner Instruments (IonOptix & MyoBlazer) and allowed to equilibrate for 5 minutes under constant perfusion. The cells were field stimulated with supra-threshold voltage at a 1 Hz pacing frequency, with a bipolar pulse of 3 ms duration, using a pair of platinum wires placed on opposite sides of the chamber connected to a MyoPacer stimulator. […] The IonWizard software or MyoBLAZER Analysis software analyzed the periodicity in the optical density of these bands by means of a fast Fourier transform algorithm.
Pro-arrhythmia markers. […] STV (STV=Σ|CAn+1−CAn|(20×√2)^−1) was calculated with the last 20 transients of each control and test article concentration period. […]

The subject of data set [7] is male F344 rats. Put plainly: Morphine self-administration, repeated dosing regimen. Format: in vivo, rat.
The test system of data set [8] is human cardiomyocytes. As to conditions: Rubi, L. et al 2017; cited from earlier work.
For data set [9], the target named is human ethera-go-go-related gene (hERG) potassium channels (Homo sapiens (Human), UniProt Q12809). Conditions: Alper, K. et al 2016; cited from earlier work.

Like-named read-outs stand apart in the source and are kept apart here. Some results are limits rather than exact numbers.

Consider `CCC1CC2C[C@H]3c4oc5ccc(O)cc5c4CCN2C13` (stereo partly drawn) [(16R)-Oxa-noribogaine], for which the IC50 in [1] (± SEM, read-out: hSERT (IC50)) was found to be 450 ± 70 nM; in data set [4] (± SEM, read-out: rVMAT2 (IC50)) it was 140 ± 30 nM. Moreover, the “% efficacy of control agonist (KOR: U-50,488) maximal response at 1 μM” value in [2] (cAMP) is on record as “(96%)”. Besides, in data set [2] (cAMP, read-out: rKOR (EC50)), the EC50 is less than 10 nM. Moreover, in [3], the “ED50, analgesia in tail-flick test” value is given as 2.8 mg/kg.
Consider epi-oxa-noribogaine, for which the “morphine intake, duration of reduction” value in [5] is given as “significantly decreased morphine self-administration for three sessions”.
Take `CCC1CC2CC3c4oc5ccc(O)cc5c4CCN(C2)C13` (centres unmarked) [oxa-noribogaine]: the figures for the IC50 in data set [1] and in data set [4] were 900 ± 120 nM and 670 ± 110 nM, respectively. The compound further yielded an EC50 in [2] of less than 10 nM. The Emax in [2] (cAMP, read-out: % efficacy of control agonist (KOR: U-50,488) maximal response at 1 μM) was 102%. In addition, the pro-arrhythmia effects entry in data set [6] was “no pro-arrhytmia effects even at high concentrations”. Besides, in data set [7] (after first 10 mg/kg), the “morphine intake in the following three sessions” value is given as “approximately 40 % of baseline levels”. Also, in [7] (after first 40 mg/kg), the “morphine intake recovered after administration” value is recorded as “approximately 60 % of VEH levels”. The “morphine intake at the end of the dosing regimen” value in [7] (after last 5 mg/kg) is on record as “approximately 8 % of baseline levels”. Moreover, the “morphine intake in the following session” value in [7] (after second 10 mg/kg) is on record as “approximately 25 % of baseline levels”. Moreover, in data set [7] (after second 40 mg/kg), the “morphine intake recovered over following three days” value is reported as “approximately 50%”. Also, in data set [7] (eighteen days after last 5 mg/kg), the “morphine intake eighteen days following the last administration” value amounted to 40%. Moreover, the “morphine intake in the session following administration” value in [7] (first 10 mg/kg) is “approximately 4 infusions”.
In the case of `CCC1CC2C[C@@H]3c4oc5ccc(O)cc5c4CCN2C13` (stereo partly drawn) [(16S)-Oxa-noribogaine], the IC50 in data set [1] (± SEM, read-out: hSERT (IC50)) came to 2900 ± 680 nM; in data set [4] (± SEM, read-out: rVMAT2 (IC50)), 2800 ± 550 nM. In [2] (cAMP), the “% efficacy of control agonist (KOR: U-50,488) maximal response at 1 μM” value was “(25%)”. Also, the EC50 in data set [2] (cAMP, read-out: rKOR (EC50)) is approximately 300 nM. In addition, the “ED50, analgesia in tail-flick test” value in data set [3] is more than 30 mg/kg.
Regarding `CC[C@H]1C[C@H]2C[C@H]3c4[nH]c5ccc(O)cc5c4CCN(C2)C13` [noribogaine], the pro-arrhythmia effects result in [6] was “exhibits pro-arrhytmia effects”. Besides, in data set [8], the action potential repolarization entry is given as “significantly delayed action potential repolarization”. Moreover, the “hERG block IC50” value in [9] is on record as “low micromolar”.
